Assay [1] addresses T1, HCV polymerase 1A (Δ21 NS5B) (Hepatitis C virus genotype 1a, UniProt P27958).
T1 construct: 20 to 50 nM Δ21 NS5B
Kind of assay: HCV Polymerase Inhibition Assay (1a). Format: biochemical. The protocol: (§1) Reaction volume was 50 μL. The reaction was terminated by the addition of 1 volume of 4 mM spermine in 10 mM Tris-Cl pH 8.0, 1 mM EDTA. After incubation for at least 15 minutes at room temperature, the precipitated RNA was captured by filtering through a GF/B filter (Millipore) in a 96 well format. The filter plate was washed three times with 200 μL, each of 2 mM spermine, 10 mM Tris-Cl pH 8.0, 1 mM EDTA, and 2 times with ethanol. After air-drying, 30 μL, of Microscint 20 scintillation cocktail (Packard) was added to each well, and the retained cpm were determined by scintillation counting. […] Retained cpm were plotted vs. inhibitor concentration and fit to equation 1 using non-linear regression (ref. 1) to obtain the IC50 values: Retained cpm=A[sqrt{(IC50+It−Et)^2+4*IC50*Et}−(IC50+It−Et)]
(§2) Ref. Morrison, J. F. and S. R. Stone. 1985. Approaches to the study and analysis of the inhibition of enzymes by slow- and tight-binding inhibitors. Comments Mol. Cell. Biophys. 2: 347-368.
(§3) The sequence of the template RNA used was: 5′-[…] […] […] […] […] […] […] […] […] […] […] […] […] […] […] […] […]-3′ (SEQ ID NO: 1)

Assay [2] has as its target T2, HCV polymerase 1B (Δ21 NS5B) (Hepatitis C virus genotype 1b, UniProt P26663).
T2 construct: 20 to 50 nM Δ21 NS5B
Nature of the assay: HCV Polymerase Inhibition Assay (1b). Format: biochemical. As to the method: as §1, §2, §3

For assay [3], the system named is genotype 1a-H77 subgenomic replicon cell line. Kind of assay: HCV Polymerase Replicon Assay (genotype 1a-H77, luciferase reporter). In kind it is cell-based. To be noted: Hepatitis C virus, 72 h, 1a-H77 replicon, three days. Background: In antiviral work, replicon cells carry a viral genome segment that copies itself.
In assay [4] the test system is genotype 1b-Con1 subgenomic replicon cell line. Nature of the assay: HCV Polymerase Replicon Assay (genotype 1b-Con1, luciferase reporter). Format: cell-based. To be noted: Hepatitis C virus, 72 h, 1b-Con1 replicon, three days.

Each structure is given as a SMILES string.

T2 sequence (P26663 2420-2989, stated change not applied): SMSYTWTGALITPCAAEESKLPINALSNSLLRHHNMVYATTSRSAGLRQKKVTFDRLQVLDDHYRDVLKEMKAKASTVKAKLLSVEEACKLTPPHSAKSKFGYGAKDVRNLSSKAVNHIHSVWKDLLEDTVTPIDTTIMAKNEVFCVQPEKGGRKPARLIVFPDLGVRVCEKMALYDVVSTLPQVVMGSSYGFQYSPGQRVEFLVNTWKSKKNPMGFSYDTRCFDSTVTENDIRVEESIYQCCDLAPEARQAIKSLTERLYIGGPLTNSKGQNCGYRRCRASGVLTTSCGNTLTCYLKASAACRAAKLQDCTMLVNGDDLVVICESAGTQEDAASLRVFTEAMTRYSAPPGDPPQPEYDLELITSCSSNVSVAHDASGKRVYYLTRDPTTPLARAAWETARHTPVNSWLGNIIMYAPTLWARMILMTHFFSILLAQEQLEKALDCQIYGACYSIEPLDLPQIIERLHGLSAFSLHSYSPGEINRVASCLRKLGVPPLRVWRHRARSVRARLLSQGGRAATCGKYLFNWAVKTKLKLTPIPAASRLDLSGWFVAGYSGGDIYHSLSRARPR
T1 sequence (P27958 2421-2990, stated change not applied): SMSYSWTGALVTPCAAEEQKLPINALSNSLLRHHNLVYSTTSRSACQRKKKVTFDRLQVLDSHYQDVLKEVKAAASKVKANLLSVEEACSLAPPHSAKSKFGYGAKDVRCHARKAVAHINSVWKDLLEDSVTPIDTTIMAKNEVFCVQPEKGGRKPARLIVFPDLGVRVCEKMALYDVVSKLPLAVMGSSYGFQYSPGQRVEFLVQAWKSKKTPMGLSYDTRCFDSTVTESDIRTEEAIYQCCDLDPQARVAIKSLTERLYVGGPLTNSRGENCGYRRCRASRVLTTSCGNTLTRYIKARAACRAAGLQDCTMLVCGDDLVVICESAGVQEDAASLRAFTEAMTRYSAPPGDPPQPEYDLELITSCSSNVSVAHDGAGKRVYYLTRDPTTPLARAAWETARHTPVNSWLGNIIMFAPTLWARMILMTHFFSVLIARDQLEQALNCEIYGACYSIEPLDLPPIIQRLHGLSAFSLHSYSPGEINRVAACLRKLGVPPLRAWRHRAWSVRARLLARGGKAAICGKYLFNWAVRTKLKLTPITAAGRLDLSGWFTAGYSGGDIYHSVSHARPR

Broadly, the IC50 is the concentration that gives 50% inhibition. High values mean weaker potency, low ones greater potency. The term EC50 denotes the concentration at which the effect is half-maximal. For the molecule `COc1c(-c2ccc3cc(NS(C)(=O)=O)ccc3c2)cc(-c2c[nH]c(=O)[nH]c2=O)cc1-c1ccco1` [compound 40, N-(6-(5-(2,4-dioxo-1,2,3,4-tetrahydropyrimidin-5-yl)-3-(furan-2-yl)-2-methoxyphenyl)naphthalen-2-yl)methanesulfonamide], the IC50 in assay [1] and in assay [2] was less than 10 nM each time. The EC50 fell in the range of 100 to 1000 nM in assay [3] and 10 to 100 nM in assay [4].

On to `COc1c(-c2ccc3cc(NS(C)(=O)=O)ccc3c2)cc(-c2c[nH]c(=O)[nH]c2=O)cc1-c1cnn(C)c1` [compound 41, N-(6-(5-(2,4-dioxo-1,2,3,4-tetrahydropyrimidin-5-yl)-2-methoxy-3-(1-methyl-1H-pyrazol-4-yl)phenyl)naphthalen-2-yl)methanesulfonamide], for which the IC50 in assay [1] and in assay [2] was 100 to 1000 nM each time. Besides, the EC50 in assay [3] and in assay [4] was greater than 1000 nM in each case.

In the case of `COc1c(-c2ccc3cc(NS(C)(=O)=O)ccc3c2)cc(-c2c[nH]c(=O)[nH]c2=O)cc1-c1ccc(C)o1` [compound 42, N-(6-(5-(2,4-dioxo-1,2,3,4-tetrahydropyrimidin-5-yl)-2-methoxy-3-(5-methylfuran-2-yl)phenyl)naphthalen-2-yl)methanesulfonamide], the IC50 was less than 10 nM in assay [1] and 10 to 100 nM in assay [2]. Moreover, the EC50 was 10 to 100 nM in assay [3] and no more than 10 nM in assay [4].

As to `COc1c(-c2ccsc2)cc(-c2c[nH]c(=O)[nH]c2=O)cc1-c1ccc2cc(NS(C)(=O)=O)ccc2c1` [compound 43, N-(6-(5-(2,4-dioxo-1,2,3,4-tetrahydropyrimidin-5-yl)-2-methoxy-3-(thiophen-3-yl)phenyl)naphthalen-2-yl)methanesulfonamide], the IC50 in assay [1] and in assay [2] was less than 10 nM throughout. Besides, the values for the EC50 in assay [3] and in assay [4] were 100 to 1000 nM and 10 to 100 nM, respectively.

In the case of `COc1c(-c2ccc3c(c2)CC=C3CNS(C)(=O)=O)cc(-c2c[nH]c(=O)[nH]c2=O)cc1-c1ccc(C)o1` [compound 44, N-((6-(5-(2,4-dioxo-1,2,3,4-tetrahydropyrimidin-5-yl)-2-methoxy-3-(5-methylfuran-2-yl)phenyl)-1H-inden-3-yl)methyl)methanesulfonamide], the IC50 in assay [1] and in assay [2] was 10 to 100 nM throughout. Besides, the EC50 in assay [3] lay within 100 to 1000 nM; in assay [4], 10 to 100 nM.

For `COc1c(-c2ccc(/C=N/NS(C)(=O)=O)cc2)cc(N2CCCS2(=O)=O)cc1C(C)(C)C` [compound 45, (E)-N′-((3′-tert-butyl-5′-(2-(1,1-dioxidoisothiazolidin-2-yl))-2′ methoxybiphenyl-4-yl)methylene)methanesulfonylhydrazide], the IC50 in assay [1] and in assay [2] was 100 to 1000 nM each time. For the same molecule, the EC50 is greater than 1000 nM in assay [3] and 100 to 1000 nM in assay [4].

`COc1c(-c2ccc3cc(NS(C)(=O)=O)ccc3c2)cc(N2CCCS2(=O)=O)cc1C(C)(C)C` [compound 46, N-(6-(3-tert-butyl-5-(2-(1,1-dioxidoisothiazolidin-2-yl))-2-methoxyphenyl)naphthalene-2-yl)methanesulfonamide]: the IC50 in assay [1] and in assay [2] was 10 to 100 nM each time. Also, the EC50 lay within 100 to 1000 nM in assay [3] and 10 to 100 nM in assay [4].

`COc1c(-c2ccc3cc(NS(C)(=O)=O)ccc3c2)cc(NC(C)=O)cc1C(C)(C)C` [compound 47, N-(3-tert-butyl-4-methoxy-5-(6-(methylsulfonamido)naphthalen-2-yl)phenyl)acetamide]: the values for the IC50 in assay [1] and in assay [2] were 100 to 1000 nM and greater than 1000 nM, respectively. Besides, the EC50 was greater than 1000 nM in assay [3] and 100 to 1000 nM in assay [4].

As to `COc1c(Br)cc(-c2c[nH]c(=O)[nH]c2=O)cc1C(F)(F)F` [compound 48, 5-(3-bromo-4-methoxy-5-(trifluoromethyl)phenyl)pyrimidine-2,4(1H,3H)-dione], the IC50 in assay [1] and in assay [2] was greater than 1000 nM each time. For the same molecule, the concentration giving a half-maximal response (EC50) in assay [3] and in assay [4] was greater than 1000 nM in each case.

On to `COc1c(-c2ccc3cc(NS(C)(=O)=O)ccc3c2)cc(-c2c[nH]c(=O)[nH]c2=O)cc1C(F)(F)F` [compound 49, N-(6-(5-(2,4-dioxo-1,2,3,4-tetrahydropyrimidin-5-yl)-2-methoxy-3-(trifluoromethyl)phenyl)naphthalen-2-yl)methanesulfonamide], for which the values for the IC50 in assay [1] and in assay [2] were less than 10 nM and 10 to 100 nM, respectively. For the same molecule, the results for the EC50 in assay [3] and in assay [4] were 10 to 100 nM and no more than 10 nM, respectively.

Turning to `COc1c(/C=C/c2ccc(NS(C)(=O)=O)cc2)cc(-c2c[nH]c(=O)[nH]c2=O)cc1C(F)(F)F` [compound 50, (E)-N-(4-(5-(2,4-dioxo-1,2,3,4-tetrahydropyrimidin-5-yl)-2-methoxy-3-(trifluoromethyl)styryl)phenyl)methanesulfonamide], the IC50 in assay [1] and in assay [2] was 10 to 100 nM throughout. For the same molecule, the EC50 in assay [3] was 100 to 1000 nM; in assay [4], 10 to 100 nM.

Take `COc1c(-c2ccc3c(CNS(C)(=O)=O)csc3c2)cc(-c2c[nH]c(=O)[nH]c2=O)cc1C(F)(F)F` [compound 51, N-((6-(5-(2,4-dioxo-1,2,3,4-tetrahydropyrimidin-5-yl)-2-methoxy-3-(trifluoromethyl)phenyl)benzo[b]thiophen-3-yl)methyl)methanesulfonamide]: the values for the IC50 in assay [1] and in assay [2] were less than 10 nM and 10 to 100 nM, respectively. Further, the EC50 in assay [3] was 100 to 1000 nM; in assay [4], 10 to 100 nM.

As for `COc1c(-c2ccc3c(c2)CC=C3CNS(C)(=O)=O)cc(-c2cn(S(C)(=O)=O)c(=O)[nH]c2=O)cc1C(F)(F)F` [compound 52, N-((6-(2-methoxy-5-(1-(methylsulfonyl)-2,4-dioxo-1,2,3,4-tetrahydropyrimidin-5-yl)-3-(trifluoromethyl)phenyl)-1H-inden-3-yl)methyl)methanesulfonamide], the IC50 in assay [1] and in assay [2] was 10 to 100 nM throughout. In addition, the EC50 in assay [3] is 100 to 1000 nM; in assay [4], no more than 10 nM.

The values are drawn from US9353091B2 (priority 2009, dated 2016).
